Test results reported in Sander's compilation of Henry's law constants (doi:10.1007/s002160101077).

Assay: Henry solubility constant Hcp at 298.15 K (mol/(m3 Pa))
Details: reference: Pfeifer et al. (2001)

Compound | Henry solubility constant Hcp
COc1c(Br)c(Br)c(Br)c(Br)c1Br [pentabromomethoxybenzene] | 1
COc1c(Cl)c(Cl)c(Cl)c(Cl)c1Cl [pentachloromethoxybenzene] | 0.0021
COc1c(Cl)cc(Cl)c(Br)c1Cl [3-bromo-2,4,6-trichloro-1-methoxybenzene] | 0.01
COc1ccc(Br)cc1Cl [4-bromo-2-chloro-1-methoxybenzene] | 0.013
COc1cc(Cl)cc(Cl)c1 [1,3-dichloro-5-methoxybenzene] | 0.0023
COc1c(Br)cc(Br)cc1Br [1,3,5-tribromo-2-methoxybenzene] | 0.013
COc1ccc(Br)cc1 [1-bromo-4-methoxybenzene] | 0.011
COc1c(Br)cc(Br)c(Cl)c1Cl [2,4-dibromo-5,6-dichloro-1-methoxybenzene] | 0.0098
COc1c(Br)cccc1Br [1,3-dibromo-2-methoxybenzene] | 0.037
COc1c(Cl)c(Cl)c(Br)c(Cl)c1Cl [4-bromo-2,3,5,6-tetrachloro-1-methoxybenzene] | 0.0092
COc1ccc(Cl)cc1Br [2-bromo-4-chloro-1-methoxybenzene] | 0.018
COc1ccc(Cl)cc1Cl [1,5-dichloro-2-methoxybenzene] | 0.012
COc1cc(Cl)c(Cl)c(Cl)c1Cl [1,2,3,4-tetrachloro-5-methoxybenzene] | 0.0065
COc1c(Br)cc(Cl)cc1Br [2,6-dibromo-4-chloro-1-methoxybenzene] | 0.011
COc1c(Cl)cc(Cl)cc1Br [2-bromo-4,6-dichloro-1-methoxybenzene] | 0.012
COc1cc(Cl)c(Br)c(Cl)c1Br [2,4-dibromo-3,5-dichloro-1-methoxybenzene] | 0.0091
COc1cccc(Cl)c1 [1-chloro-3-methoxybenzene] | 0.045
COc1c(Cl)cc(Br)c(Cl)c1Cl [4-bromo-2,3,6-trichloro-1-methoxybenzene] | 0.01
COc1ccc(Br)c(Cl)c1Cl [4-bromo-2,3-dichloro-1-methoxybenzene] | 0.011
COc1cc(Cl)cc(Cl)c1Br [2-bromo-3,5-dichloro-1-methoxybenzene] | 0.011
COc1ccc(Cl)c(Cl)c1Cl [1,2,3-trichloro-4-methoxybenzene] | 0.013

Compound | Henry solubility constant Hcp
COc1cccc(Cl)c1Cl [1,2-dichloro-3-methoxybenzene] | 0.022
COc1c(Cl)cc(Cl)cc1Cl [1,3,5-trichloro-2-methoxybenzene] | 0.0046
COc1c(Cl)cccc1Br [2-bromo-6-chloro-1-methoxybenzene] | 0.014
COc1c(Cl)cc(Cl)c(Cl)c1Cl [1,2,3,5-tetrachloro-4-methoxybenzene] | 0.0031
COc1c(Cl)c(Cl)cc(Cl)c1Cl [1,2,4,5-tetrachloro-3-methoxybenzene] | 0.0032
COc1c(Cl)c(Cl)cc(Br)c1Cl [3-bromo-2,5,6-trichloro-1-methoxybenzene] | 0.01
COc1ccc(Br)cc1Br [1,5-dibromo-2-methoxybenzene] | 0.081
COc1cc(Cl)ccc1Cl [1,4-dichloro-2-methoxybenzene] | 0.021
COc1cccc(Br)c1 [1-bromo-3-methoxybenzene] | 0.0072
COc1ccccc1Br [1-bromo-2-methoxybenzene] | 0.029
COc1c(Cl)cccc1Cl [1,3-dichloro-2-methoxybenzene] | 0.0088
COc1cc(Br)c(Cl)cc1Cl [5-bromo-2,4-dichloro-1-methoxybenzene] | 0.011
COc1ccc(Cl)c(Cl)c1 [1,2-dichloro-4-methoxybenzene] | 0.0092
COc1cc(Cl)c(Cl)c(Cl)c1 [1,2,3-trichloro-5-methoxybenzene] | 0.0044
COc1c(Br)cc(Br)c(Cl)c1Br [2,4,6-tribromo-3-chloro-1-methoxybenzene] | 0.0091
COc1c(Br)ccc(Cl)c1Cl [6-bromo-2,3-dichloro-1-methoxybenzene] | 0.011
COc1cc(Cl)c(Br)c(Cl)c1 [4-bromo-3,5-dichloro-1-methoxybenzene] | 0.011
COc1cc(Cl)c(Cl)cc1Cl [1,2,4-trichloro-5-methoxybenzene] | 0.011
COc1c(Cl)ccc(Cl)c1Cl [1,2,4-trichloro-3-methoxybenzene] | 0.0098
COc1c(Cl)cc(Br)cc1Cl [4-bromo-2,6-dichloro-1-methoxybenzene] | 0.012
